Source: patent publication US12180187B2, “1-phenyl-5-azinylpyrazolyl-3-oxyalkyl acids and their use for controlling unwanted plant growth” (BAYER AKTIENGESELLSCHAFT, priority 2019, dated 2024)

Experiments:
SETVI [1] = test: Pre-emergence action at 320 g/ha against SETVI; type: in vivo, Setaria viridis; details: visual scoring after about 3 weeks vs untreated controls
Outline: (§1)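 Weed seeds sown in pots and covered with soil; compounds formulated as WP or EC were sprayed onto the soil surface as aqueous suspension or emulsion with 0.5% additive at 600 l/ha water. Pots kept in greenhouse; activity scored visually after about 3 weeks versus untreated controls (100% = plants dead, 0% = like control).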

SETVI [2] = test: Post-emergence action against SETVI, 1.28 kg/ha; type: in vivo, Setaria viridis; details: dosage 1280 g/ha, visual rating about 3 weeks after treatment vs untreated controls
Outline: (§2)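 Weeds grown in sandy loam in a greenhouse were sprayed at the one-leaf stage, 2–3 weeks after sowing, with WP or EC formulations in water containing 0.5% additive at 600 L/ha. About 3 weeks later, damage was scored visually versus untreated controls (0% = like control, 100% = dead).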

STEME = test: Pre-emergence action against STEME, 1280 g/ha; type: in vivo, Stellaria media; details: scored visually after about 3 weeks vs untreated controls (100% = plants have died)
Outline: (§3)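 Pre-emergence pot test: seeds in sandy loam, soil-covered, sprayed on soil surface (WP/EC, 0.5% additive, 600 L/ha water); greenhouse ~3 wk; visual % effect vs untreated, 0–100%.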

ALOMY = test: Pre-emergence action at 320 g/ha against ALOMY; type: in vivo, Alopecurus myosuroides; details: scored visually after about 3 weeks vs untreated controls (100% = plants have died)
Outline: as §1

LOLRI = test: Post-emergence action against LOLRI, 1.28 kg/ha; type: in vivo, Lolium rigidum; details: dosage 1280 g/ha, visual rating about 3 weeks after treatment vs untreated controls
Outline: as §2

DIGSA = test: Pre-emergence action at 320 g/ha against DIGSA; type: in vivo, Digitaria sanguinalis; details: visual scoring after about 3 weeks vs untreated controls
Outline: as §1

MATIN = test: Pre-emergence action against MATIN, 1280 g/ha; type: in vivo, Tripleurospermum inodorum (Matricaria inodora); details: scored visually after about 3 weeks vs untreated controls (100% = plants have died)
Outline: as §3

SETVI [3] = test: Pre-emergence action against SETVI, 1280 g/ha; type: in vivo, Setaria viridis; details: visual scoring after about 3 weeks vs untreated controls, 100% = plants have died, 0% = like control plants
Outline: as §3

POAAN [4] = test: Post-emergence action against POAAN, 1.28 kg/ha; type: in vivo, Poa annua; details: dosage 1280 g/ha, visual rating about 3 weeks after treatment vs untreated controls
Outline: as §2

POLCO = test: Pre-emergence action at 320 g/ha against POLCO; type: in vivo, Fallopia convolvulus (Polygonum convolvulus); details: visual scoring after about 3 weeks vs untreated controls
Outline: as §1

POAAN [5] = test: Pre-emergence action against POAAN, 1280 g/ha; type: in vivo, Poa annua; details: visual scoring after about 3 weeks vs untreated controls, 100% = plants have died, 0% = like control plants
Outline: as §3

AMARE [6] = test: Pre-emergence action against AMARE, 1280 g/ha; type: in vivo, Amaranthus retroflexus; details: scored visually after about 3 weeks vs untreated controls (100% = plants have died)
Outline: as §3

AVEFA = test: Pre-emergence action at 320 g/ha against AVEFA; type: in vivo; details: visual scoring after about 3 weeks vs untreated controls
Outline: as §1

AMARE [7] = test: Pre-emergence action at 320 g/ha against AMARE; type: in vivo, Amaranthus retroflexus; details: visual scoring after about 3 weeks vs untreated controls
Outline: as §1

VERPE = test: Pre-emergence action against VERPE, 1280 g/ha; type: in vivo, Veronica persica; details: scored visually after about 3 weeks vs untreated controls (100% = plants have died)
Outline: as §3

ECHCG = test: Pre-emergence action against ECHCG, 1280 g/ha; type: in vivo, Echinochloa crus-galli; details: visual scoring after about 3 weeks vs untreated controls, 100% = plants have died, 0% = like control plants
Outline: as §3

CCOC(=O)COc1nn(-c2ccccc2F)c(-c2ccnc(F)c2)c1Br [VIII-003, Ethyl {[4-bromo-1-(2-fluorophenyl)-5-(2-fluoropyridin-4-yl)-1H-pyrazol-3-yl]oxy}acetate]
pest or weed control at 320 g/ha (SETVI [1]; Setaria viridis, 504 h): 100% | Post-emergence action against SETVI (SETVI [2]): 100% | pest or weed control at 1280 g/ha (STEME; Stellaria media, 504 h): 100% | pest or weed control at 320 g/ha (ALOMY; Alopecurus myosuroides, 504 h): 100% | Post-emergence action against LOLRI (LOLRI): 100% | pest or weed control at 320 g/ha (DIGSA; Digitaria sanguinalis, 504 h): 100% | pest or weed control at 1280 g/ha (MATIN; Tripleurospermum inodorum, 504 h): 100% | pest or weed control at 1280 g/ha (SETVI [3]; Setaria viridis, 504 h): 100% | pest or weed control at 1280 g/ha (POAAN [4]; Poa annua, 504 h): 100% | pest or weed control at 320 g/ha (POLCO; Fallopia convolvulus, 504 h): 100% | pest or weed control at 1280 g/ha (POAAN [5]; Poa annua, 504 h): 100% | pest or weed control at 1280 g/ha (AMARE [6]; Amaranthus retroflexus, 504 h): 100% | pest or weed control at 320 g/ha (AVEFA; Avena fatua, 504 h): 90% | pest or weed control at 320 g/ha (AMARE [7]; Amaranthus retroflexus, 504 h): 90% | pest or weed control at 1280 g/ha (VERPE; Veronica persica, 504 h): 90% | pest or weed control at 1280 g/ha (ECHCG; Echinochloa crus-galli, 504 h): 100%

COC(=O)[C@@H](C)Oc1nn(-c2ccccc2F)c(-c2ccnc(F)c2)c1Br [VIII-006]
Pre-emergence action against SETVI in % (SETVI [1]): 100% | Post-emergence action against SETVI (SETVI [2]): 90% | Pre-emergence action against STEME (STEME): 100% | Pre-emergence action at 320 g/ha against ALOMY in % (ALOMY): 100% | Post-emergence action against LOLRI (LOLRI): 100% | Pre-emergence action against DIGSA in % (DIGSA): 100% | Pre-emergence action against MATIN (MATIN): 100% | Pre-emergence action against SETVI (SETVI [3]): 100% | Post-emergence action against POAAN (POAAN [4]): 100% | Pre-emergence action against POLCO in % (POLCO): 90% | Pre-emergence action against POAAN (POAAN [5]): 100% | Pre-emergence action against AMARE (AMARE [6]): 100% | Pre-emergence action against AVEFA in % (AVEFA): 80% | Pre-emergence action against AMARE in % (AMARE [7]): 100% | Pre-emergence action against VERPE (VERPE): 100% | Pre-emergence action against ECHCG (ECHCG): 100%
